{
  "source": "patent US10201158B2",
  "about": "“Plant disease control composition and method for controlling plant disease by application of same” (MITSUI CHEMICALS AGRO, INC., priority 2014, dated 2019)",
  "key": {"Sphaerotheca fuliginea": {"test_system": "Sphaerotheca fuliginea", "assay": "Cucumber powdery mildew preventive test", "assay_type": "in vivo", "settings": "in vivo", "method": "In a greenhouse, cucumber (variety: Sagamihanshiro) planted in a plastic pot having a diameter of 5 cm was grown to the 3rd to 5th-leaf stage. Spray was carried out in the same manner as in Test example 1, and 3 days after the spray, a conidia suspension prepared from Sphaerotheca fuliginea were inoculated on the leaf surface. After inoculation, the pots were placed in a thermostatic greenhouse (20 to 25° C.), and controlling effects were examined after 7 days from the inoculation. In the examination, a ratio of lesion area occupied per one leaf of cucumber was determined according to the same index as in Test example 1, and the control value and the theoretical value according to Colby's formula were similarly calculated.\nWettable powder prepared in compliance with Comparative Preparation Example 4 containing the compounds indicated in Table 7-9 were sprayed to the cucumber leaves, a conidiospore suspension prepared from Sphaerotheca fuliginea was inoculated onto the plants, and the controlling effects were examined in a manner similar to Test Example 6."}, "Puccinia recondita": {"test_system": "Puccinia recondita", "assay": "Wheat brown rust preventive test", "assay_type": "in vivo", "settings": "Table 5; treatment concentration 10 ppm; 8 days after inoculation", "method": "Wheat plants (variety: Norin 61 gou) planted in plastic pots having a diameter of 5 cm were grown indoors to the second to fourth leaf stage. Wettable powder containing the compounds indicated in Table 5 were sprayed in the same manner as in Test Example 1, and after the chemical had dried, a conidia suspension of Puccinia recondita was inoculated onto the leaves. Following inoculation, the pots were placed in the humidified chamber of an artificial inoculation room (20° C. to 23° C.), removed on the following day and then transferred to a greenhouse. Control effects were examined 8 days after inoculation. During the examination, the number of lesions on five leaves of the wheat plants was determined in accordance with the following incidence degree indicators, and control values and theoretical values as determined according to Colby's formula were calculated in the same manner as in Test Example 1."}, "Phytophthora infestans": {"test_system": "Phytophthora infestans", "assay_type": "in vivo", "settings": "treatment concentration 10 ppm, 5 days after inoculation; for Control value: Table 6-1"}, "[1]": {"test_system": "Pseudoperonospora cubensis", "assay": "Cucumber downy mildew preventive test", "assay_type": "in vivo", "settings": "Table 8; treatment concentration 10 ppm; 7 days after inoculation", "method": "In a greenhouse, cucumber (variety: Sagamihanshiro) planted in a plastic pot having a diameter of 5 cm was grown to the 3rd to 5th-leaf stage. Spray was carried out in the same manner as in Test example 1, and after drying the chemical liquid, the pots were transferred into a greenhouse. After 3 days from the spray, a zoosporangium suspension of Pseudoperonospora cubensis was inoculated. After inoculation, the pots were placed in a high-humidity chamber (20 to 25° C.), transferred into a greenhouse on the next day, and controlling effects were examined after 7 days from the inoculation. A ratio of lesion area occupied per one leaf of cucumber was determined according to the same index as in Test example 1, and the control value and the theoretical value according to Colby's formula were similarly calculated."}, "Pyricularia oryzae": {"test_system": "Pyricularia oryzae", "assay_type": "in vivo", "settings": "treatment concentration 10 ppm; for Control value: Table 3-1"}, "Blumeria graminis": {"test_system": "Blumeria graminis", "assay": "Barley powdery mildew preventive test", "assay_type": "in vivo", "settings": "Table 4; treatment concentration 10 ppm; 8 days after inoculation", "method": "Barley plants (variety: Akashinriki) planted in plastic pots having a diameter of 5 cm were grown indoors to the second to fourth leaf stage. Wettable powder containing the compounds indicated in Table 4 were sprayed in the same manner as in Test Example 1, and after the chemical had dried, conidia of Blumeria graminis was inoculated onto the leaves. Following inoculation, the pots were transferred to a constant-temperature chamber (20° C. to 25° C.), and control effects were examined 8 days after inoculation."}, "Botrytis cinerea": {"test_system": "Botrytis cinerea", "settings": "in vivo"}, "[2]": {"settings": "Table 3-5 (Comparative Example 2)"}},
  "note": "“And” between values parts separate entries of the source, which are not always exact repeats. Equal values may be shown once. Read-outs that look alike come from different tables or passages of the source.",
  "data": [
    {"smiles": "CC1(C)N=C(c2cnc3ccccc3c2)c2ccccc2C1(F)F", "note": "[Compound B, 3-(4,4-difluoro-3,3-dimethyl-3,4-dihydroisoquinolin-1-yl)quinoline]", "values": [
      {"measurement": "Control value", "setting": "Sphaerotheca fuliginea", "result": "33 and 17"},
      {"measurement": "Preventive value", "setting": "Sphaerotheca fuliginea", "result": "33 and 40"},
      {"measurement": "Control value", "setting": "Puccinia recondita", "result": 6},
      {"measurement": "Control value", "setting": "Phytophthora infestans", "result": 13},
      {"measurement": "Preventive value", "setting": "Phytophthora infestans; Table 6-2", "result": 33},
      {"measurement": "Preventive value", "setting": "Phytophthora infestans; Table 6-3", "result": 40},
      {"measurement": "Preventive value", "setting": "[1]", "result": 23},
      {"measurement": "Control value", "setting": "Pyricularia oryzae", "result": 67},
      {"measurement": "Preventive value", "setting": "Pyricularia oryzae; Table 3-2", "result": 73},
      {"measurement": "Preventive value", "setting": "Pyricularia oryzae; Table 3-3", "result": 73},
      {"measurement": "Preventive value", "setting": "Pyricularia oryzae; Table 3-4", "result": 67},
      {"measurement": "Preventive value", "setting": "Pyricularia oryzae; [2]", "result": 67},
      {"measurement": "Control value", "setting": "Blumeria graminis", "result": 6},
      {"measurement": "Control value", "setting": "Botrytis cinerea", "result": 57},
      {"measurement": "Preventive value", "setting": "Botrytis cinerea", "result": "77 and 70 and 73 and 80 and 67 and 40"}
    ]},
    {"smiles": "CC1(C)N=C(c2cnc3ccccc3c2)c2cccc(F)c2C1(F)F", "note": "[Compound C, 3-(4,4,5-trifluoro-3,3-dimethyl-3,4-dihydroisoquinolin-1-yl)quinoline]", "values": [
      {"measurement": "Control value", "setting": "Sphaerotheca fuliginea", "result": "33 and 17"},
      {"measurement": "Preventive value", "setting": "Sphaerotheca fuliginea", "result": "33 and 40"},
      {"measurement": "Control value", "setting": "Puccinia recondita", "result": 8},
      {"measurement": "Control value", "setting": "Phytophthora infestans", "result": 4},
      {"measurement": "Preventive value", "setting": "Phytophthora infestans; Table 6-2", "result": 40},
      {"measurement": "Preventive value", "setting": "Phytophthora infestans; Table 6-3", "result": 37},
      {"measurement": "Preventive value", "setting": "[1]", "result": 17},
      {"measurement": "Control value", "setting": "Pyricularia oryzae", "result": 67},
      {"measurement": "Preventive value", "setting": "Pyricularia oryzae; Table 3-2", "result": 73},
      {"measurement": "Preventive value", "setting": "Pyricularia oryzae; Table 3-3", "result": 73},
      {"measurement": "Preventive value", "setting": "Pyricularia oryzae; Table 3-4", "result": 67},
      {"measurement": "Preventive value", "setting": "Pyricularia oryzae; [2]", "result": 67},
      {"measurement": "Control value", "setting": "Blumeria graminis", "result": 6},
      {"measurement": "Control value", "setting": "Botrytis cinerea", "result": 57},
      {"measurement": "Preventive value", "setting": "Botrytis cinerea", "result": "73 and 60 and 70 and 77 and 67 and 40"}
    ]},
    {"smiles": "CC1(C)N=C(c2cnc3ccccc3c2)c2cccc(F)c2C1(C)C", "note": "[Compound A, 3-(5-fluoro-3,3,4,4-tetramethyl-3,4-dihydroisoquinolin-1-yl)quinoline]", "values": [
      {"measurement": "Control value", "setting": "Sphaerotheca fuliginea", "result": "33 and 17"},
      {"measurement": "Preventive value", "setting": "Sphaerotheca fuliginea", "result": 40},
      {"measurement": "Control value", "setting": "Puccinia recondita", "result": 11},
      {"measurement": "Control value", "setting": "Phytophthora infestans", "result": 8},
      {"measurement": "Preventive value", "setting": "Phytophthora infestans; Table 6-2", "result": 33},
      {"measurement": "Preventive value", "setting": "Phytophthora infestans; Table 6-3", "result": 47},
      {"measurement": "Preventive value", "setting": "[1]", "result": 27},
      {"measurement": "Control value", "setting": "Pyricularia oryzae", "result": 67},
      {"measurement": "Preventive value", "setting": "Pyricularia oryzae; Table 3-2", "result": 73},
      {"measurement": "Preventive value", "setting": "Pyricularia oryzae; Table 3-3", "result": 73},
      {"measurement": "Preventive value", "setting": "Pyricularia oryzae; Table 3-4", "result": 67},
      {"measurement": "Preventive value", "setting": "Pyricularia oryzae; [2]", "result": 67},
      {"measurement": "Control value", "setting": "Blumeria graminis", "result": 6},
      {"measurement": "Control value", "setting": "Botrytis cinerea", "result": 64},
      {"measurement": "Preventive value", "setting": "Botrytis cinerea", "result": "77 and 70 and 73 and 67 and 40"}
    ]}
  ]
}
